Source: patent publication US20210052566A1, “METHODS FOR TREATING HEPATITIS B VIRUS (HBV) INFECTION” (INSERM (INSTITUT NATIONAL DE LA SANTÉ ET DE LA RECHERCHE …, priority 2018, published 2021)

What was measured:
HBV genotype D = assay: Anti-HBV properties in persistently infected dHepaRG cells, genotype D (post-infection treatment); assay type: cell-based, Hepatitis B virus; settings: treated three times with 10 microM
Method: (§1) FIG. 1. Experimental outlines. Treatment schemes: (a) Treatments in pre-infection: dHepaRG cells were treated for 24 h (at day −1) with 100 nM of PreS1 peptide (PreS1-pep) or 10 μM of 1C8, or untreated (NT). At day 0, cells were inoculated with HBV (MOI=250) or with HDV (MOI=25) in the presence of drugs for 24 h. For the tenofovir control (TDF at 10 μM), cells were treated at day 1 and 4 post-infection. Supernatant and cells were harvested at day 7 post-infection. (b) Treatments in post-infection: dHepaRG cells were inoculated with HBV (MOI=250) or with HDV (MOI=25). At days 4, 7 and 9 post infection, cells were treated with TDF 10 μM, lamivudine (3TC) at 10 μM, 1C8 10 μM or untreated (NT). Supernatant and cells were harvested at day 11 postinfection.
FIG. 5. Anti-HBV properties of 1C8 in persistently infected dHepaRG cells: genotype D. Differentiated HepaRG were infected with HBV genotype D at a MOI of 100 vge/cell or HDV genotype 1 at a MOI of 10 vge/cell for 7 days before being treated trice every 2-3 days with indicated molecules at a concentration of 10 microM. A) Total DNA and RNA were extracted from cells and subjected to qPCR and RTqPCR to detect HBV cccDNA, total HBV RNA or pregenomic HBV RNA. B) HBs and HBe secreted antigens in supernatant were quantified by ELISA, whereas HBV DNA contained in virions was quantified by qPCR after viral nucleic acid extraction from supernatant. C) Intracellular HDV RNA was quantified by RTqPCR after total RNA extraction from cells. D) Viability was monitored in 1C8-treated (or control treated; puromycin is a positive toxic molecule) cells by CellTiter-Glo® luminescent cell viability assay. Results are the mean+SEM of n=3 performed with 3 different differentiations of HepaRG. Statistics were done by two-tailed Mann-Whitney test, with following significativity: *P<0.05, **P<0.01, ***P<0.001, ****P<0.0001. nd=not determined
Human liver progenitor HepaRG cells were cultured in Williams medium (ThermoFisher) supplemented with 10% of FBS (Perbio), Penicillin/Streptomycin (500 U/mL), glutamine (2 mM), hydrocortisone Upjohn (2.5 mg/L; Serb laboratory), insulin (5 mg/L; Sigma Aldrich). For the differentiation process 2% of DMSO was added to the above-described supplemented Williams medium. […] The multiplicity of infection (MOI; expressed as virus genome equivalent/cell) is indicated in the figure legends, but was of 100 vge/cell if not precised.
From cell culture supernatants, secreted HBe and HBs antigens were quantified by ELISA, using a chemiluminescence immunoassay kit (Autobio, China) following manufacturer's instructions. […]
A HBV standard was used for quantification of extracellular viral DNA and RNA. […]

HDV genotype 1 = assay: Establishment of HDV infection in dHepaRG (treatment 24 h before and during inoculation); assay type: cell-based, hepatitis delta virus; settings: 1C8 10 microM, Entry Inh. 100 nM
Method: as §1
FIG. 7. Effect of 1C8 on de novo establishment of ccDNA in dHepaRG (genotype D). […] B) HBs and HBe secreted antigens in supernatant were quantiUied by ELISA, whereas HBV DNA contained in virions was quantified by qPCR after viral nucleic acid extraction from supernatant. […] Statistics were done by two-tailed Mann-Whitney test, with following signiUicativity: *P<0.05, **P<0.01, ***P<0.001, ****P<0.0001. nd=not determined.

[1] = target: serine/arginine-rich splicing factor 10 (SRSF10) (human) (UniProt O75494); assay: Strep-Tactin affinity purification of StrepTag-HBc complexes from hepatocyte nuclei, LC-MS/MS
Sequence of serine/arginine-rich splicing factor 10 (SRSF10) (human) (O75494 whole entry): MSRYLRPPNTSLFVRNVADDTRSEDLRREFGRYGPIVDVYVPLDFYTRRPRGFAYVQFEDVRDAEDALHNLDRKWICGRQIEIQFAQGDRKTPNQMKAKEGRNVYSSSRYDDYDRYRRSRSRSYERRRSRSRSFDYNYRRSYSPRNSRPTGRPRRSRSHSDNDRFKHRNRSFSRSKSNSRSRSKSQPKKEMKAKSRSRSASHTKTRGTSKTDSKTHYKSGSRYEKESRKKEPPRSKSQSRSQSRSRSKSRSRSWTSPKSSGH

Sequence of StrepTag-HBc (core/capsid protein of HBV with a StrepTag at the N terminus) (P03146 whole entry): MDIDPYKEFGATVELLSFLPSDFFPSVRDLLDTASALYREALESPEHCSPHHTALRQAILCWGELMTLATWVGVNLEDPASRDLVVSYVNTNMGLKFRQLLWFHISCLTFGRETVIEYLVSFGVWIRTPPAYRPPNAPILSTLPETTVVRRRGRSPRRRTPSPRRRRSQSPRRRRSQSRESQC

## C[C@H](Cn1cnc2c(N)ncnc21)OCP(=O)(O)O [tenofovir, reference compound]
HBV genotype D
  impact on accumulation of intracellular HBV RNA: not capable to impact

## Entry Inh.: PreS1 peptide, aa 2 to 48 of HBV PreS1 (SEQ ID No 1), N-terminal myristoyl, used for inhibiting HBV entry [reference compound]
HDV genotype 1
  block of the establishment of HDV infections: inhibited

## StrepTag-HBc (core/capsid protein of HBV with a StrepTag at the N terminus)
[1]
  enrichment in HBc complexes: 3000 times
